Laboratory results: the supplement of paper PMC11451515

Tested on: NOMO1
Experiment: cell viability relative to DMSO control; higher = less cytotoxic
Conditions: 48 h
Procedure, shortened: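 NOMO1 or SEM cells were plated at 500 cells/well and P12-Ichikawa cells at 1000 cells/well in 1536-well plates (5 μl), after each leukemia line had been adapted for at least four passages in each medium. Pin dosing delivered library compounds in DMSO at 11 threefold concentrations, 47 μM to 0.79 nM. CellTiter-Glo One luminescence was read after 48 h at 37°C. Viability is reported as a per-plate percentage of DMSO wells, with cell-free wells as background.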

[1] = HPLM + 10% dialyzed FBS, 0.000781 µM
[2] = HPLM + 10% dialyzed FBS, 0.00234 µM
[3] = HPLM + 10% dialyzed FBS, 0.00702 µM
[4] = HPLM + 10% dialyzed FBS, 0.0211 µM
[5] = HPLM + 10% dialyzed FBS, 0.0632 µM
[6] = HPLM + 10% dialyzed FBS, 0.19 µM
[7] = HPLM + 10% dialyzed FBS, 0.569 µM
[8] = HPLM + 10% dialyzed FBS, 1.71 µM
[9] = HPLM + 10% dialyzed FBS, 5.12 µM
[10] = HPLM + 10% dialyzed FBS, 15.4 µM
[11] = HPLM + 10% dialyzed FBS, 46.1 µM
[12] = RPMI 5 mM glucose + 10% FBS, 0.000781 µM
[13] = RPMI 5 mM glucose + 10% FBS, 0.00234 µM
[14] = RPMI 5 mM glucose + 10% FBS, 0.00702 µM
[15] = RPMI 5 mM glucose + 10% FBS, 0.0211 µM
[16] = RPMI 5 mM glucose + 10% FBS, 0.0632 µM
[17] = RPMI 5 mM glucose + 10% FBS, 0.19 µM
[18] = RPMI 5 mM glucose + 10% FBS, 0.569 µM
[19] = RPMI 5 mM glucose + 10% FBS, 1.71 µM
[20] = RPMI 5 mM glucose + 10% FBS, 5.12 µM
[21] = RPMI 5 mM glucose + 10% FBS, 15.4 µM
[22] = RPMI 5 mM glucose + 10% FBS, 46.1 µM
[23] = RPMI 5 mM glucose + 10% dialyzed FBS, 0.000781 µM
[24] = RPMI 5 mM glucose + 10% dialyzed FBS, 0.00234 µM
[25] = RPMI 5 mM glucose + 10% dialyzed FBS, 0.00702 µM
[26] = RPMI 5 mM glucose + 10% dialyzed FBS, 0.0211 µM
[27] = RPMI 5 mM glucose + 10% dialyzed FBS, 0.0632 µM
[28] = RPMI 5 mM glucose + 10% dialyzed FBS, 0.19 µM
[29] = RPMI 5 mM glucose + 10% dialyzed FBS, 0.569 µM
[30] = RPMI 5 mM glucose + 10% dialyzed FBS, 1.71 µM
[31] = RPMI 5 mM glucose + 10% dialyzed FBS, 5.12 µM
[32] = RPMI 5 mM glucose + 10% dialyzed FBS, 15.4 µM
[33] = RPMI 5 mM glucose + 10% dialyzed FBS, 46.1 µM

Compound | cell viability [1] | cell viability [2] | cell viability [3] | cell viability [4] | cell viability [5] | cell viability [6] | cell viability [7] | cell viability [8] | cell viability [9] | cell viability [10] | cell viability [11] | cell viability [12] | cell viability [13] | cell viability [14] | cell viability [15] | cell viability [16] | cell viability [17] | cell viability [18] | cell viability [19] | cell viability [20] | cell viability [21] | cell viability [22] | cell viability [23] | cell viability [24] | cell viability [25] | cell viability [26] | cell viability [27] | cell viability [28] | cell viability [29] | cell viability [30] | cell viability [31] | cell viability [32] | cell viability [33]
NCC(=O)Nc1ccc(-n2nc(C(F)(F)F)cc2-c2ccc3c(ccc4ccccc43)c2)cc1 | 129% | 123% | 123% | 137% | 134% | 124% | 138% | 147% | 131% | 108% | 78.1% | – | – | – | – | – | – | – | – | – | – | – | – | – | – | – | – | – | – | – | – | – | –
O=[N+]([O-])c1cnc(Sc2nnc(O)n2-c2ccc3c(c2)OCCO3)s1 | 84.4% | 73.6% | 101% | 102% | 96.4% | 92.3% | 86.3% | 96.1% | 93.6% | 6.33% | 2.43% | 81.7% | 78.2% | 95.3% | 92% | 85.2% | 86.2% | 82.8% | 92.2% | 84.7% | 2.77% | 2.27% | 78.9% | 96.3% | 92% | 97.1% | 92.2% | 98.9% | 95.3% | 89.9% | 83.5% | 6.45% | 1.89%
COc1cc(OC)c(NC(=O)Nc2cc(C)on2)cc1Cl | 97.6% | 96.4% | 100% | 106% | 106% | 84.4% | 119% | 114% | 100% | 105% | 96.9% | 83.5% | 96.7% | 85.2% | 92.7% | 93.8% | 97.9% | 93.9% | 91% | 90.1% | 88.7% | 99.5% | 86.8% | 83.8% | 81.3% | 85.6% | 97.3% | 89.4% | 98% | 79.7% | 83% | 88.1% | 88.3%
Cc1ccc(C(=O)c2cc(O)c(O)c([N+](=O)[O-])c2)cc1 | 91.5% | 104% | 98.2% | 100% | 116% | 101% | 115% | 89.5% | 80.7% | 83.2% | 86.4% | 90.3% | 86.4% | 83.6% | 90.6% | 96% | 83.7% | 90.9% | 81.7% | 94.6% | 87.3% | 92.2% | 100% | 98% | 79.4% | 92.1% | 99.6% | 105% | 108% | 94.3% | 81.8% | 88.4% | 103%
CCNC(=O)[C@H]1O[C@@H](n2cnc3c(N)nc(NCCc4ccc(CCC(=O)O)cc4)nc32)[C@H](O)[C@@H]1O | 104% | 83.1% | 98.9% | 103% | 95.7% | 104% | 96.6% | 95.6% | 87.3% | 96.6% | 91% | 104% | 91.6% | 94% | 102% | 89.4% | 89.3% | 86.9% | 90.6% | 89.9% | 90.8% | 84.1% | 89.3% | 104% | 100% | 93.5% | 92.3% | 90.8% | 96.9% | 88.7% | 94.5% | 78.8% | 87.8%
O=C1CCc2ccc(OCCCCN3CCN(c4cccc(Cl)c4Cl)CC3)cc2N1 | 115% | 98.6% | 119% | 77.7% | 96.1% | 109% | 89.2% | 91.6% | 106% | 107% | 85.1% | 91.2% | 91.7% | 94.7% | 86.6% | 92.9% | 89.5% | 96.6% | 97.2% | 81.6% | 93.6% | 77.6% | 106% | 83.6% | 97.7% | 75.2% | 96.1% | 93.6% | 91.5% | 98.1% | 91.1% | 97.5% | 78.7%
CC(C)[C@H](CO)Nc1nc(Nc2cccc(Cl)c2)c2ncn(C(C)C)c2n1 | – | – | – | – | – | – | – | – | – | – | – | – | – | – | – | – | – | – | – | – | – | – | 111% | 124% | 127% | 125% | 124% | 112% | 123% | 84.2% | 12.6% | 6.44% | 3.06%
C[C@@H]1C[C@H]2[C@@H]3CC\C4=C\C(=O)\C=C/[C@]4(C)[C@@]3(Cl)[C@@H](O)C[C@]2(C)[C@@]1(OC(=O)C5=CC=CO5)C(=O)CCl | 118% | 109% | 113% | 115% | 118% | 99.2% | 103% | 107% | 81.9% | 71.6% | 84.2% | 112% | 111% | 101% | 102% | 104% | 103% | 108% | 101% | 97.1% | 70.5% | 84.2% | 95.1% | 112% | 106% | 113% | 105% | 110% | 98% | 109% | 97.9% | 65.4% | 79.7%
CCN1C[C@]2(OC(=O)c3ccccc3NC(C)=O)CC[C@H](OC)[C@@]34[C@@H]2C[C@@H]([C@@H]13)[C@@]1(O)C[C@H](OC)[C@H]2C[C@@H]4[C@]1(O)[C@H]2OC | 106% | 101% | 118% | 101% | 108% | 88.3% | 118% | 103% | 112% | 93.2% | 114% | 96.3% | 99.4% | 101% | 106% | 103% | 91.6% | 118% | 107% | 95.1% | 101% | 107% | 98% | 104% | 120% | 99.1% | 105% | 105% | 109% | 107% | 111% | 106% | 95.9%
